Data as given in ChEMBL document CHEMBL3137386, “DNDi T. cruzi fenarimol series dataset from which preclinical candidate EPL-BS1246 was identified (see also related datasets CHEMBL2448688 and CHEMBL3137440)”.
Values after ≈ are worked out from the molar mass of the structure shown. Values joined by “and” are separate entries in the source; they are usually repeats but may differ in a detail not shown here. Equal values may be shown once.

tested on: not listed separately; assay: DNDI: Lipophilicity (gLogD) at pH 3; format: physicochemical; conditions: buffer

Compound	chromatographic logD
CS(=O)(=O)c1ccc(N2CCN(C(=O)C(c3ccc(Cl)cc3)c3cccnc3)CC2)cc1 (stereo not drawn)	2.3
O=C(C(c1ccc(Cl)cc1)c1cccnc1)N1CCN(c2ccc(C(F)(F)F)nc2)CC1 (stereo not drawn)	3.2
O=C(C(c1ccc(Cl)cc1)c1cncnc1)N1CCN(c2ccc(C(F)(F)F)cn2)CC1 (stereo not drawn)	3.9

tested on: not listed separately; assay: DNDI: Metabolism; format: ADME, Microsome; conditions: human, microsomes

Compound	Clint	EH	t (1 / 2)	half-life	microsomal CLint
CS(=O)(=O)c1ccc(N2CCN(C(=O)C(c3ccc(Cl)cc3)c3cccnc3)CC2)cc1 (stereo not drawn)	84 µL/min/mg and 53 µL/min/mg and 38 µL/min/mg	0.75 and 0.68	21 min and 33 min and 46 min	–	–
O=C(C(c1ccc(Cl)cc1)c1cccnc1)N1CCN(c2ccc(C(F)(F)F)nc2)CC1 (stereo not drawn)	36 µL/min/mg and 61 µL/min/mg	0.77 and 0.7	49 min and 28 min	41 min	42 µL/min/mg
O=C(C(c1ccc(Cl)cc1)c1cncnc1)N1CCN(c2ccc(C(F)(F)F)cn2)CC1 (stereo not drawn)	–	–	–	23 min	76 µL/min/mg

same assay, conditions: human, microsomes; read-out: EH

Compound	hepatic extraction ratio
CS(=O)(=O)c1ccc(N2CCN(C(=O)C(c3ccc(Cl)cc3)c3cccnc3)CC2)cc1 (stereo not drawn)	0.82
O=C(C(c1ccc(Cl)cc1)c1cccnc1)N1CCN(c2ccc(C(F)(F)F)nc2)CC1 (stereo not drawn)	0.67
O=C(C(c1ccc(Cl)cc1)c1cncnc1)N1CCN(c2ccc(C(F)(F)F)cn2)CC1 (stereo not drawn)	0.81

tested on: not listed separately; assay: DNDI: Solubility in phosphate buffer at pH 6.5 determined by nephelometry; format: physicochemical; conditions: not given

Compound	solubility kinetic
O=C(C(c1ccc(Cl)cc1)c1cncnc1)N1CCN(c2ccc(C(F)(F)F)cn2)CC1 (stereo not drawn)	6.3 µg/mL (≈ 13.6 µM)

molecular target: T1, Cytochrome P450 3A4 (Homo sapiens, UniProt P08684); assay: (§1) DNDI: CYP Inhibition; format: ADME; conditions: not given
T1 sequence (P08684 whole entry): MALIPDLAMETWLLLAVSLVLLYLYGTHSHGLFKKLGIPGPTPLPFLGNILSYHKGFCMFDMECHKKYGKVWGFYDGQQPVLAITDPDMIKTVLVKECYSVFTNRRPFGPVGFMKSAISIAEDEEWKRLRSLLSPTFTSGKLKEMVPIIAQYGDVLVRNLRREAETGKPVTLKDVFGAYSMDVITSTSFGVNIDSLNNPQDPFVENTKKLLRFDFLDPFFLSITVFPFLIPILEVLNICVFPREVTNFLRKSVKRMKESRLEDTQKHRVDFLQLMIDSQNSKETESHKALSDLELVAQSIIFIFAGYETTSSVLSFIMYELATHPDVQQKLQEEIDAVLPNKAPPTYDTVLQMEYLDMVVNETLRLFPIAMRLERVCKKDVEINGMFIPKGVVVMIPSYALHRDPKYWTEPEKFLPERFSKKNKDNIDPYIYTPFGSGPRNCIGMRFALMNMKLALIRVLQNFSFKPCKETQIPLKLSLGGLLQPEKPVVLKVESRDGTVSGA

Compound	IC50
CS(=O)(=O)c1ccc(N2CCN(C(=O)C(c3ccc(Cl)cc3)c3cccnc3)CC2)cc1 (stereo not drawn)	19 µM
O=C(C(c1ccc(Cl)cc1)c1cccnc1)N1CCN(c2ccc(C(F)(F)F)nc2)CC1 (stereo not drawn)	> 20 µM
O=C(C(c1ccc(Cl)cc1)c1cncnc1)N1CCN(c2ccc(C(F)(F)F)cn2)CC1 (stereo not drawn)	18 µM

tested on: Trypanosoma cruzi; assay: (§2) DNDI: Chagas in vitro; format: functional, Tulahuen C4 (LacZ); conditions: not given

Compound	IC90
CS(=O)(=O)c1ccc(N2CCN(C(=O)C(c3ccc(Cl)cc3)c3cccnc3)CC2)cc1 (stereo not drawn)	0.214 µM and > 0.1 µM
O=C(C(c1ccc(Cl)cc1)c1cccnc1)N1CCN(c2ccc(C(F)(F)F)nc2)CC1 (stereo not drawn)	> 0.1 µM and 1.03 µM

same assay, conditions: Trypanosoma cruzi, Tulahuen C4 (LacZ)

Compound	IC90
O=C(C(c1ccc(Cl)cc1)c1cncnc1)N1CCN(c2ccc(C(F)(F)F)cn2)CC1 (stereo not drawn)	> 0.1 µM

tested on: not listed separately; assay: DNDI: Lipophilicity (gLogD) at pH 7.4; format: physicochemical; conditions: buffer

Compound	chromatographic logD
CS(=O)(=O)c1ccc(N2CCN(C(=O)C(c3ccc(Cl)cc3)c3cccnc3)CC2)cc1 (stereo not drawn)	2.9
O=C(C(c1ccc(Cl)cc1)c1cncnc1)N1CCN(c2ccc(C(F)(F)F)cn2)CC1 (stereo not drawn)	3.9

tested on: L6; assay: (§3) DNDI: Cytotoxicity against L-6 rat myoblasts from skeletal muscle; format: toxicity, cell-based, Muscle tissue; conditions: l6

Compound	IC50
CS(=O)(=O)c1ccc(N2CCN(C(=O)C(c3ccc(Cl)cc3)c3cccnc3)CC2)cc1 (stereo not drawn)	61.5 µM

tested on: not listed separately; assay: as §3; format: toxicity, cell-based, Muscle tissue, L6; conditions: rat, L6 rat skeletal muscle myoblasts

Compound	IC50
CS(=O)(=O)c1ccc(N2CCN(C(=O)C(c3ccc(Cl)cc3)c3cccnc3)CC2)cc1 (stereo not drawn)	> 100 µM
O=C(C(c1ccc(Cl)cc1)c1cccnc1)N1CCN(c2ccc(C(F)(F)F)nc2)CC1 (stereo not drawn)	66.8 µM
O=C(C(c1ccc(Cl)cc1)c1cncnc1)N1CCN(c2ccc(C(F)(F)F)cn2)CC1 (stereo not drawn)	52.5 µM

tested on: Trypanosoma cruzi; assay: as §2; format: functional, organism-based, Tulahuen C4 (LacZ); conditions: Trypanosoma cruzi, Tulahuen C4 (LacZ)

Compound	IC50
O=C(C(c1ccc(Cl)cc1)c1cncnc1)N1CCN(c2ccc(C(F)(F)F)cn2)CC1 (stereo not drawn)	0.161 µM

tested on: not listed separately; assay: DNDI: Solubility in 0.01M HCl at pH 2 determined by nephelometry; format: physicochemical; conditions: 0.01 M HCl

Compound	solubility kinetic
CS(=O)(=O)c1ccc(N2CCN(C(=O)C(c3ccc(Cl)cc3)c3cccnc3)CC2)cc1 (stereo not drawn)	25 µg/mL (≈ 53.2 µM)
O=C(C(c1ccc(Cl)cc1)c1cccnc1)N1CCN(c2ccc(C(F)(F)F)nc2)CC1 (stereo not drawn)	> 100 µg/mL
O=C(C(c1ccc(Cl)cc1)c1cncnc1)N1CCN(c2ccc(C(F)(F)F)cn2)CC1 (stereo not drawn)	50 µg/mL (≈ 108 µM)

molecular target: T1, Cytochrome P450 3A4; assay: as §1; format: ADME; conditions: not given

Compound	IC50
CS(=O)(=O)c1ccc(N2CCN(C(=O)C(c3ccc(Cl)cc3)c3cccnc3)CC2)cc1 (stereo not drawn)	7.1 µM
O=C(C(c1ccc(Cl)cc1)c1cccnc1)N1CCN(c2ccc(C(F)(F)F)nc2)CC1 (stereo not drawn)	20 µM

tested on: Trypanosoma brucei rhodesiense; assay: DNDI: HAT in vitro; format: functional, organism-based; conditions: ATCC 30027

Compound	IC50
CS(=O)(=O)c1ccc(N2CCN(C(=O)C(c3ccc(Cl)cc3)c3cccnc3)CC2)cc1 (stereo not drawn)	> 10 µM
O=C(C(c1ccc(Cl)cc1)c1cccnc1)N1CCN(c2ccc(C(F)(F)F)nc2)CC1 (stereo not drawn)	> 10 µM
O=C(C(c1ccc(Cl)cc1)c1cncnc1)N1CCN(c2ccc(C(F)(F)F)cn2)CC1 (stereo not drawn)	> 10 µM
